Laboratory results as given in PubChem BioAssay (NCI).
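Each compound was tested at five concentrations against cells in 96-well plates for 48 hours. At the TGI there is no net growth.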

Experiments:
Test in all cases: growth of human tumour cells (NCI), 48 h
[1] = tested on: 786-0 renal
[2] = tested on: A549 NSCLC
[3] = tested on: ACHN renal
[4] = tested on: BT-549 breast
[5] = tested on: CAKI-1 renal
[6] = tested on: CCRF-CEM leukemia
[7] = tested on: COLO 205 colon
[8] = tested on: DU-145 prostate
[9] = tested on: EKVX NSCLC
[10] = tested on: HCC-2998 colon
[11] = tested on: HCT-116 colon
[12] = tested on: HCT-15 colon
[13] = tested on: HL-60(TB) leukemia
[14] = tested on: HOP-92 NSCLC
[15] = tested on: HT29 colon
[16] = tested on: IGROV1 ovarian
[17] = tested on: K-562 leukemia
[18] = tested on: KM12 colon
[19] = tested on: LOX IMVI melanoma
[20] = tested on: M14 melanoma
[21] = tested on: MALME-3M melanoma
[22] = tested on: MCF7 breast
[23] = tested on: MDA-MB-231 breast
[24] = tested on: MDA-MB-435
[25] = tested on: MDA-N
[26] = tested on: MOLT-4 leukemia
[27] = tested on: NCI-H226 lung
[28] = tested on: NCI-H23 lung
[29] = tested on: NCI-H460 lung
[30] = tested on: NCI-H522 lung
[31] = tested on: NCI/ADR-RES ovarian
[32] = tested on: OVCAR-3 ovarian
[33] = tested on: OVCAR-4 ovarian
[34] = tested on: OVCAR-5 ovarian
[35] = tested on: OVCAR-8 ovarian
[36] = tested on: PC-3 prostate
[37] = tested on: RXF 393 renal
[38] = tested on: SF-295 CNS
[39] = tested on: SF-539 CNS
[40] = tested on: SK-MEL-2 melanoma
[41] = tested on: SK-MEL-28 melanoma
[42] = tested on: SK-MEL-5 melanoma
[43] = tested on: SK-OV-3 ovarian
[44] = tested on: SN12C renal
[45] = tested on: SNB-19 CNS
[46] = tested on: SNB-75 CNS
[47] = tested on: SR leukemia
[48] = tested on: SW-620 colon
[49] = tested on: T-47D breast
[50] = tested on: TK-10 renal
[51] = tested on: U251 CNS
[52] = tested on: UACC-257 melanoma
[53] = tested on: UACC-62 melanoma
[54] = tested on: UO-31 renal
[55] = tested on: HOP-62 NSCLC
[56] = tested on: HS 578T breast
[57] = tested on: RPMI-8226 leukemia
[58] = tested on: SF-268 CNS
[59] = tested on: A498 renal

Structure (SMILES): COC(=O)C1=C(C(=O)OC)C(Cc2ccccc2)(OO)OC1=O (centres undefined)
- TGI [1]: > 100 µM
- TGI [2]: > 100 µM
- TGI [3]: 9.36 µM
- TGI [4]: 26.3 µM
- TGI [5]: 19.4 µM
- TGI [6]: 6.69 µM
- TGI [7]: > 100 µM
- TGI [8]: > 100 µM
- TGI [9]: 37.3 µM
- TGI [10]: > 100 µM
- TGI [11]: > 100 µM
- TGI [12]: 16 µM
- TGI [13]: 3.66 µM
- TGI [14]: 42.4 µM
- TGI [15]: 24.2 µM
- TGI [16]: 24.5 µM
- TGI [17]: 63.7 µM
- TGI [18]: 39.1 µM
- TGI [19]: 22.8 µM
- TGI [20]: > 100 µM
- TGI [21]: 24.5 µM
- TGI [22]: 53.9 µM
- TGI [23]: > 100 µM
- TGI [24]: > 100 µM
- TGI [25]: > 100 µM
- TGI [26]: 30.8 µM
- TGI [27]: 35.9 µM
- TGI [28]: 44.4 µM
- TGI [29]: > 100 µM
- TGI [30]: 6.71 µM
- TGI [31]: > 100 µM
- TGI [32]: 19.7 µM
- TGI [33]: 52.3 µM
- TGI [34]: 54.2 µM
- TGI [35]: > 100 µM
- TGI [36]: > 100 µM
- TGI [37]: 32.8 µM
- TGI [38]: > 100 µM
- TGI [39]: 17.1 µM
- TGI [40]: 96.2 µM
- TGI [41]: > 100 µM
- TGI [42]: > 100 µM
- TGI [43]: 94.4 µM
- TGI [44]: 98 µM
- TGI [45]: 58.9 µM
- TGI [46]: 49.6 µM
- TGI [47]: > 100 µM
- TGI [48]: > 100 µM
- TGI [49]: > 100 µM
- TGI [50]: 15 µM
- TGI [51]: 67.9 µM
- TGI [52]: > 100 µM
- TGI [53]: 15.5 µM
- TGI [54]: 26.9 µM

Structure (SMILES): CC(C)(C)OC(=O)CC(NC(=O)OC(C)(C)C)C(=O)N[C@@H]1CCCC[C@H]1C(=O)OCc1ccccc1 (some centres undefined)
- TGI [1]: > 100 µM
- TGI [2]: 93.4 µM
- TGI [3]: > 100 µM
- TGI [5]: > 100 µM
- TGI [6]: 83.2 µM
- TGI [7]: 38.2 µM
- TGI [8]: 99.8 µM
- TGI [9]: > 100 µM
- TGI [10]: 64.7 µM
- TGI [11]: 52.5 µM
- TGI [12]: 39.4 µM
- TGI [13]: 68.9 µM
- TGI [55]: > 100 µM
- TGI [14]: > 100 µM
- TGI [56]: 48 µM
- TGI [15]: 59.1 µM
- TGI [16]: > 100 µM
- TGI [17]: > 100 µM
- TGI [18]: > 100 µM
- TGI [19]: > 100 µM
- TGI [20]: > 100 µM
- TGI [21]: > 100 µM
- TGI [22]: 85.5 µM
- TGI [23]: > 100 µM
- TGI [24]: 92.2 µM
- TGI [25]: > 100 µM
- TGI [26]: 89.1 µM
- TGI [27]: 60.3 µM
- TGI [28]: 85.3 µM
- TGI [29]: > 100 µM
- TGI [31]: > 100 µM
- TGI [32]: > 100 µM
- TGI [33]: > 100 µM
- TGI [34]: > 100 µM
- TGI [35]: > 100 µM
- TGI [36]: > 100 µM
- TGI [57]: 95.4 µM
- TGI [37]: > 100 µM
- TGI [58]: > 100 µM
- TGI [38]: 70.2 µM
- TGI [39]: 64 µM
- TGI [40]: 61.1 µM
- TGI [41]: > 100 µM
- TGI [42]: 24.5 µM
- TGI [43]: 65 µM
- TGI [44]: 48.7 µM
- TGI [45]: 69.3 µM
- TGI [46]: > 100 µM
- TGI [47]: > 100 µM
- TGI [48]: > 100 µM
- TGI [49]: 59.3 µM
- TGI [50]: 79.6 µM
- TGI [51]: 61.4 µM
- TGI [52]: 89.4 µM
- TGI [53]: 60.8 µM
- TGI [54]: 53.8 µM

Structure (SMILES): CC1(C)C2CCC(CN)(C2)C1O (centres undefined)
- TGI [59]: > 100 µM
- TGI [3]: > 100 µM
- TGI [4]: > 100 µM
- TGI [5]: > 100 µM
- TGI [6]: > 100 µM
- TGI [9]: > 100 µM
- TGI [10]: > 100 µM
- TGI [12]: > 100 µM
- TGI [13]: > 100 µM
- TGI [14]: > 100 µM
- TGI [17]: > 100 µM
- TGI [18]: > 100 µM
- TGI [23]: > 100 µM
- TGI [24]: > 100 µM
- TGI [25]: > 100 µM
- TGI [26]: > 100 µM
- TGI [27]: > 100 µM
- TGI [28]: > 100 µM
- TGI [29]: > 100 µM
- TGI [31]: > 100 µM
- TGI [33]: > 100 µM
- TGI [35]: > 100 µM
- TGI [57]: > 100 µM
- TGI [58]: > 100 µM
- TGI [41]: > 100 µM
- TGI [44]: > 100 µM
- TGI [45]: > 100 µM
- TGI [46]: > 100 µM
- TGI [47]: > 100 µM
- TGI [48]: > 100 µM
- TGI [50]: > 100 µM
- TGI [51]: > 100 µM
- TGI [52]: > 100 µM
- TGI [53]: > 100 µM
- TGI [54]: > 100 µM

Structure (SMILES): CC1(C)/C(=N\O)C2(C#N)CCC1C2 (centres undefined)
- TGI [59]: > 100 µM
- TGI [3]: > 100 µM
- TGI [4]: > 100 µM
- TGI [5]: > 100 µM
- TGI [6]: > 100 µM
- TGI [10]: > 100 µM
- TGI [12]: > 100 µM
- TGI [13]: > 100 µM
- TGI [14]: > 100 µM
- TGI [17]: > 100 µM
- TGI [18]: > 100 µM
- TGI [23]: > 100 µM
- TGI [24]: > 100 µM
- TGI [25]: > 100 µM
- TGI [26]: > 100 µM
- TGI [27]: > 100 µM
- TGI [28]: > 100 µM
- TGI [29]: > 100 µM
- TGI [31]: > 100 µM
- TGI [33]: > 100 µM
- TGI [35]: > 100 µM
- TGI [57]: > 100 µM
- TGI [58]: > 100 µM
- TGI [41]: > 100 µM
- TGI [44]: > 100 µM
- TGI [45]: > 100 µM
- TGI [46]: > 100 µM
- TGI [47]: > 100 µM
- TGI [48]: > 100 µM
- TGI [50]: > 100 µM
- TGI [51]: > 100 µM
- TGI [52]: > 100 µM
- TGI [53]: > 100 µM
- TGI [54]: > 100 µM
